IC50 data for 26 molecules are collected here from patent US9090583B2, “Benzopyrone estrogen receptor regulator” (BEIJING SHENOGEN PHARMA GROUP LTD., priority 2010, dated 2015).

Read-outs that look alike come from different tables or passages of the source.

The subject of one assay is MDA-MB-231 cells. Nature of the assay: CellTiter-Glo Luminescent Cell Viability Assay on ER-negative breast cancer MDA-MB-231 cells. Format: cell-based. To be noted: average ± standard deviation when tested more than 3 times, read-out: Inhibition of the viability of breast cancer cells, IC50. The method, then:
A: In Vitro CellTiter-Glo® Luminescent Cell Viability Assay on ER-Negative Breast Cancer MDA-MB-231 Cells:
MDA-MB-231 cells were maintained at 37° C., under 5% CO2 atmosphere in DMEM containing 10% fetal calf serum. The cells were seeded on 96-well plate at a density of 6×10^3 cells per well. MDA-MB-231 cells were treated with a test compound dissolved in DMSO at the concentrations of zero, 0.3 μM, 0.5 μM, 1 μM, 2 μM, 3 μM, 5 μM, 10 μM, 20 μM, 30 μM, 50 μM and 100 μM for 72 hours. Treated cells were examined by CellTiter-Glo® Luminescent Cell Viability Assay Kit (Promega), and luminescence values were recorded with Envision.
In general terms: ATP-based viability assays read luminescence as a measure of living cells.

The next assay deals with MCF7 cells. In words: CellTiter-Glo Luminescent Cell Viability Assay on ER-positive breast cancer MCF-7 cells. Format: cell-based, human. To be noted: average ± standard deviation when tested more than 3 times, read-out: Inhibition of the viability of breast cancer cells, IC50. From the text:
B: In Vitro CellTiter-Glo® Luminescent Cell Viability Assay on ER-Positive Breast Cancer MCF-7 Cells:
MCF7 cells are breast cancer cell lines that highly express ER-66, ER-46 and ER-36. (Relevance of breast cancer cell lines as models for breast tumours: an update. Marc Lacroix, Guy Leclercq, Breast Cancer Research and Treatment (2004) 83, 249-289; Wang et al., Proc. Natl. Acad. Sci. U.S.A. 103:9063-9068 (2006)). MCF7 cells were obtained from ATCC and maintained in Dulbecco's Modified Eagles Medium (DMEM) and 10% fetal calf serum at 37° C., under 5% CO2 atmosphere. The cells were seeded on 96-well plate at a density of 6×10^3 cells per well. MCF7 cells were treated with a test compound dissolved in DMSO at the concentrations of zero, 0.3 μM, 0.5 μM, 1 μM, 2 μM, 3 μM, 5 μM, 10 μM, 20 μM, 30 μM, 50 μM and 100 μM for 72 hours. Treated cells were examined by CellTiter-Glo® Luminescent Cell Viability Assay Kit (Promega), and luminescence values were recorded with Envision.

Take `COc1c(-c2cncs2)oc2c(CC=C(C)C)c(O)c(CC=C(C)C)c(O)c2c1=O` [Compound 68, 2-(thiazol-5-yl)-5,7-dihydroxy-3-methoxy-6,8-di(3-methyl-2-buten-1-yl)-4H-benzopyran-4-one]: the IC50 (usually the midpoint of a concentration-inhibition curve) worked out at 23.8 µM in the assay with MDA-MB-231 cells (72 hours) and 8.89 µM in the assay on MCF7 cells (72 hours).

Consider “2-(piperazin-2-yl)-5,7-dihydroxy-3-methoxy-6,8-di(3-methyl-2-buten-1-yl)-4H-benzopyran-4-one [Compound 30]”, for which the values for the IC50 in the assay on MDA-MB-231 cells (72 hours) and with MCF7 cells (72 hours) were 77.2 µM and > 100 µM, respectively.

Turning to `CC(C)=CCc1c(O)c(CC=C(C)C)c2oc(-c3ccc(Cl)c(Cl)c3)cc(=O)c2c1O` [Compound 88, 2-(3,4-dichlorophenyl)-5,7-dihydroxy-6,8-di(3-methyl-2-buten-1-yl)-4H-benzopyran-4-one], the IC50 in the assay with MDA-MB-231 cells (Homo sapiens, MDA-MB-231, 72 h) was 16.1 µM; in the assay on MCF7 cells (Homo sapiens, MCF7, 72 h), > 100 µM.

As to `CC(C)=CCc1c(O)c(CC=C(C)C)c2oc(-c3ccc(F)c(F)c3)cc(=O)c2c1O` [Compound 85, 2-(3,4-difluorophenyl)-5,7-dihydroxy-6,8-di(3-methyl-2-buten-1-yl)-4H-benzopyran-4-one], the IC50 is > 100 µM with MDA-MB-231 cells (Homo sapiens, MDA-MB-231, 72 h) and > 100 µM with MCF7 cells (Homo sapiens, MCF7, 72 h).

`COc1c(-c2ccsc2)oc2c(CC=C(C)C)c(O)c(CC=C(C)C)c(O)c2c1=O` [Compound 40, 2-(thiophen-3-yl)-5,7-dihydroxy-3-methoxy-6,8-di(3-methyl-2-buten-1-yl)-4H-benzopyran-4-one]: the IC50 with MDA-MB-231 cells (Homo sapiens, MDA-MB-231, 72 h) came to 24 µM; in the assay on MCF7 cells (Homo sapiens, MCF7, 72 h), 23.5 µM.

For `COc1c(CC=C(C)C)c(O)c2c(=O)c(OC)c(-c3ccc(F)c(F)c3)oc2c1CC=C(C)C` [Compound 81A, 2-(3,4-difluorophenyl)-5-hydroxy-3,7-dimethoxy-6,8-di(3-methyl-2-buten-1-yl)-4H-benzopyran-4-one], the IC50 in the assay with MDA-MB-231 cells (Homo sapiens, MDA-MB-231, 72 h) is > 100 µM; in the assay on MCF7 cells (Homo sapiens, MCF7, 72 h) it was > 100 µM.

As to `CC(C)=CCc1c(O)c(CC=C(C)C)c2oc(-c3ccc(F)c(F)c3)c(O)c(=O)c2c1O` [Compound 95, 2-(3,4-difluorophenyl)-3,5,7-trihydroxy-6,8-di(3-methyl-2-buten-1-yl)-4H-benzopyran-4-one], the IC50 came to 10.4 ± 1.93 µM in the assay with MDA-MB-231 cells (Homo sapiens, MDA-MB-231, 72 h) and 6.62 ± 1.93 µM with MCF7 cells (Homo sapiens, MCF7, 72 h).

For `COc1c(-c2ccc(Cl)nc2)oc2c(CC=C(C)C)c(O)c(CC=C(C)C)c(O)c2c1=O` [Compound 52, 2-(6-chloropyridin-3-yl)-5,7-dihydroxy-3-methoxy-6,8-di(3-methyl-2-buten-1-yl)-4H-benzopyran-4-one], the IC50 amounted to 8.34 ± 1.63 µM in the assay with MDA-MB-231 cells (Homo sapiens, MDA-MB-231, 72 h) and 7.04 ± 1.43 µM in the assay on MCF7 cells (Homo sapiens, MCF7, 72 h).

On to `COc1c(-c2ccc(Cl)c(C)c2)oc2c(CC=C(C)C)c(O)c(CC=C(C)C)c(O)c2c1=O` [Compound 11, 2-(4-chloro-3-methylphenyl)-5,7-dihydroxy-3-methoxy-6,8-di(3-methyl-2-buten-1-yl)-4H-benzopyran-4-one], for which the 50% inhibitory concentration (IC50) was 13.8 µM in the assay with MDA-MB-231 cells (Homo sapiens, MDA-MB-231, 72 h) and 15.5 µM with MCF7 cells (Homo sapiens, MCF7, 72 h).

For `COc1c(-c2ccc(OC(F)(F)F)cc2)oc2c(CC=C(C)C)c(O)c(CC=C(C)C)c(O)c2c1=O` [Compound 58, 2-(4-trifluoromethoxyphenyl)-5,7-dihydroxy-3-methoxy-6,8-di(3-methyl-2-buten-1-yl)-4H-benzopyran-4-one], the IC50 is 3.63 µM with MDA-MB-231 cells (Homo sapiens, MDA-MB-231, 72 h) and > 100 µM in the assay on MCF7 cells (Homo sapiens, MCF7, 72 h).

For `COc1c(-c2ccc(S(C)(=O)=O)cc2)oc2c(CC=C(C)C)c(O)c(CC=C(C)C)c(O)c2c1=O` [Compound 64, 2-(4-methanesulfonylphenyl)5,7-dihydroxy-3-methoxy-6,8-di(3-methyl-2-buten-1-yl)-4H-benzopyran-4-one], the IC50 is 2.45 µM in the assay with MDA-MB-231 cells (Homo sapiens, MDA-MB-231, 72 h) and 40.6 µM with MCF7 cells (Homo sapiens, MCF7, 72 h).

As to `COc1c(-c2ccc3ccccc3c2)oc2c(CC=C(C)C)c(O)c(CC=C(C)C)c(O)c2c1=O` [Compound 19, 2-(naphthalen-2-yl)-5,7-dihydroxy-3-methoxy-6,8-di(3-methyl-2-butylene-1-yl)-4H-benzopyran-4-one], the IC50 came out at 13.7 ± 1.99 µM with MDA-MB-231 cells (72 hours) and 27.4 µM with MCF7 cells (72 hours).

Turning to `COc1c(CC=C(C)C)c(O)c2c(=O)c(OC)c(-c3ccc(Cl)c(F)c3)oc2c1CC=C(C)C` [Compound 82A, 2-(3-fluoro-4-chlorophenyl)-5-hydroxy-3,7-dimethoxy-6,8-di(3-methyl-2-buten-1-yl)-4H-benzopyran-4-one], the IC50 in the assay on MDA-MB-231 cells (Homo sapiens, MDA-MB-231, 72 h) is > 100 µM; in the assay with MCF7 cells (Homo sapiens, MCF7, 72 h), > 100 µM.

For the molecule `COc1c(-c2cccnc2)oc2c(CC=C(C)C)c(O)c(CC=C(C)C)c(O)c2c1=O` [Compound 28, 2-(pyridin-3-yl)-5,7-dihydroxy-3-methoxy-6,8-di(3-methyl-2-buten-1-yl)-4H-benzopyran-4-one], the IC50 in the assay on MDA-MB-231 cells (Homo sapiens, MDA-MB-231, 72 h) came to 18.1 ± 4.3 µM; in the assay on MCF7 cells (Homo sapiens, MCF7, 72 h) it was 13.2 µM.

As to `COc1c(-c2ccccn2)oc2c(CC=C(C)C)c(O)c(CC=C(C)C)c(O)c2c1=O` [Compound 29, 2-(pyridin-2-yl)-5,7-dihydroxy-3-methoxy-6,8-di(3-methyl-2-buten-1-yl)-4H-benzopyran-4-one], the IC50 was > 100 µM with MDA-MB-231 cells (Homo sapiens, MDA-MB-231, 72 h) and 12 µM in the assay on MCF7 cells (Homo sapiens, MCF7, 72 h).

As to `COc1c(-c2cncnc2)oc2c(CC=C(C)C)c(O)c(CC=C(C)C)c(O)c2c1=O` [Compound 32, 2-(pyrimidin-5-yl)-5,7-dihydroxy-3-methoxy-6,8-di(3-methyl-2-buten-1-yl)-4H-benzopyran-4-one], the IC50 with MDA-MB-231 cells (Homo sapiens, MDA-MB-231, 72 h) worked out at 20 µM; in the assay on MCF7 cells (Homo sapiens, MCF7, 72 h), 34.4 µM.

As for `COc1c(-c2ccc(Cl)cn2)oc2c(CC=C(C)C)c(O)c(CC=C(C)C)c(O)c2c1=O` [Compound 53, 2-(5-chloropyridin-2-yl)-5,7-dihydroxy-3-methoxy-6,8-di(3-3-methyl-2-buten-1-yl)-4H-benzopyran-4-one], the IC50 in the assay on MDA-MB-231 cells (72 hours) was found to be 17 ± 4.97 µM; with MCF7 cells (72 hours) it was 19.5 ± 1.02 µM.

In the case of `COc1c(-c2ccc(Cl)c(C(F)(F)F)c2)oc2c(CC=C(C)C)c(O)c(CC=C(C)C)c(O)c2c1=O` [Compound 13, 2-(4-chloro-3-trifluoromethylphenyl)-5,7-dihydroxy-3-methoxy-6,8-di(3-methyl-2-butylene-1-yl)-4H-benzopyran-4-one], the IC50 turned out to be 22.7 µM in the assay on MDA-MB-231 cells (72 hours) and 35.4 µM with MCF7 cells (72 hours).

In the case of `COc1c(-c2ccco2)oc2c(CC=C(C)C)c(O)c(CC=C(C)C)c(O)c2c1=O` [Compound 41, 2-(furan-2-yl)-5,7-dihydroxy-3-methoxy-6,8-di(3-methyl-2-buten-1-yl)-4H-benzopyran-4-one], the IC50 is > 100 µM in the assay with MDA-MB-231 cells (Homo sapiens, MDA-MB-231, 72 h) and 22.2 µM in the assay on MCF7 cells (Homo sapiens, MCF7, 72 h).

`COc1c(-c2ccc(C(C)=O)cc2)oc2c(CC=C(C)C)c(O)c(CC=C(C)C)c(O)c2c1=O` [Compound 65, 2-(4-acetylphenyl)-5,7-dihydroxy-3-methoxy-6,8-di(3-methyl-2-buten-1-yl)-4H-benzopyran-4-one]: the half-inhibitory concentration (IC50) in the assay on MDA-MB-231 cells (Homo sapiens, MDA-MB-231, 72 h) is > 100 µM; in the assay on MCF7 cells (Homo sapiens, MCF7, 72 h), 10.2 µM.

Turning to `COc1c(-c2ncccn2)oc2c(CC=C(C)C)c(O)c(CC=C(C)C)c(O)c2c1=O` [Compound 33, 2-(pyrimidin-2-yl)-5,7-dihydroxy-3-methoxy-6,8-di(3-methyl-2-buten-1-yl)-4H-benzopyran-4-one], the IC50 is 22.3 µM in the assay on MDA-MB-231 cells (Homo sapiens, MDA-MB-231, 72 h) and > 100 µM in the assay on MCF7 cells (Homo sapiens, MCF7, 72 h).

As to `COc1c(-c2ccnn2C)oc2c(CC=C(C)C)c(O)c(CC=C(C)C)c(O)c2c1=O` [Compound 48, 2-(1-methyl-1H-pyrazol-5-yl)-5,7-dihydroxy-3-methoxy-6,8-di(3-methyl-2-buten-1-yl)-4H-benzopyran-4-one], the IC50 with MDA-MB-231 cells (72 hours) was found to be 25 µM; in the assay on MCF7 cells (72 hours), 37.2 µM.

Take “2-(benzo[d][1,3]dioxo-5-yl)-5,7-dihydroxy-3-methoxy-6,8-di(3-methyl-2-buten-1-yl)-4H-benzopyran-4-one [Compound 21]”: the IC50 in the assay with MDA-MB-231 cells (72 hours) was 13.8 ± 2.1 µM; with MCF7 cells (72 hours), 47.2 ± 22.5 µM.

On to `COc1c(-c2ccc(N(C)C)cc2)oc2c(CC=C(C)C)c(O)c(CC=C(C)C)c(O)c2c1=O` [Compound 59, 2-(4-dimethylaminophenyl)-5,7-dihydroxy-3-methoxy-6,8-di(3-methyl-2-buten-1-yl)-4H-benzopyran-4-one], for which the IC50 was > 100 µM with MDA-MB-231 cells (Homo sapiens, MDA-MB-231, 72 h) and 5.12 µM with MCF7 cells (Homo sapiens, MCF7, 72 h).

Take `CC(C)=CCc1c(O)c(CC=C(C)C)c2oc(-c3ccc(Cl)cc3)cc(=O)c2c1O` [Compound 91, 2-(4-chlorophenyl)-5,7-dihydroxy-6,8-di(3-methyl-2-buten-1-yl)-4H-benzopyran-4-one]: the IC50 in the assay on MDA-MB-231 cells (Homo sapiens, MDA-MB-231, 72 h) is 8.89 µM; in the assay with MCF7 cells (Homo sapiens, MCF7, 72 h), > 100 µM.

As for `COc1c(-c2ccc3c(c2)OCCO3)oc2c(CC=C(C)C)c(O)c(CC=C(C)C)c(O)c2c1=O` [Compound 20, 2-(2,3-dihydrobenzo[b][1,4]dioxan-6-yl)-5,7-dihydroxy-3-methoxy-6,8-di(3-methyl-2-buten-1-yl)-4H-benzopyran-4-one], the IC50 was 12.6 µM in the assay on MDA-MB-231 cells (72 hours) and > 100 µM in the assay on MCF7 cells (72 hours).
